# Data as given in patent US9320741B2, “Compositions and methods for treating neoplasia, inflammatory disease and other disorders” (Dana-Farber Cancer Institute, Inc., priority 2010, dated 2016).
# Read-outs that look alike come from different tables or passages of the source.
# Assays:
# [1] = Unspecified biological assay
# BRD4(2) = BRD4(2) (Homo sapiens (Human), UniProt O60885); test: Alpha-assay acetyl-histone binding, BRD4 site 2; details: 12-point dose response curve; for IC50: read-out: Bio-assay IC50 BRD4(2)
# BRD4(1) = BRD4(1) (Homo sapiens (Human), UniProt O60885); test: Alpha-assay acetyl-histone binding, BRD4 site 1; details: 12-point dose response curve; for IC50: read-out: Bio-assay IC50 BRD4(1)
# Method: The binding activity of lead compounds with the BRD4 site 1 was determined by Alpha-assay with a 12-point dose response curve (FIG. 56A).
# (§1) Assays were performed as described previously^8 with minor modifications from the manufacturer's protocol (PerkinElmer, USA). All reagents were diluted in 50 mM HEPES, 100 mM NaCl, 0.1% BSA, pH 7.4 supplemented with 0.05% CHAPS and allowed to equilibrate to room temperature prior to addition to plates. […] Plates were sealed and incubated for a further 30 minutes, before the addition of 4 μl of streptavidin-coated donor beads (25 μg/ml) and 4 μl nickel chelate acceptor beads (25 μg/ml) under low light conditions. Plates were foil-sealed to protect from light, incubated at room temperature for 60 minutes and read on a PHERAstar FS plate reader (BMG Labtech, Germany) using an AlphaScreen 680 excitation/570 emission filter set. IC50 values were calculated in Prism 5 (GraphPad Software, USA) after normalization against corresponding DMSO controls and are given as the final concentration of compound in the 20 μl reaction volume.
# 797 cells = test: Cell proliferation assay, 797 cell line; assay type: cell-based; details: Homo sapiens, read-out: Cell-assay IC50 797 cells
# Method: Curve fit was calculated by logistical regression.
# Cells were seeded into white, 384-well microtiter plates (Nunc) at 500 cells per well in a total volume of 50 μL media. […] Compounds were delivered to microtiter assay plates by robotic pin transfer (PerkinElmer JANUS equipped with a V&P Scientific 100 nL pin tool). Following a 48 h incubation at 37° C., cells were lysed and wells were assessed for total ATP content using a commercial proliferation assay (Cell TiterGlo; Promega). Replicate measurements were analyzed with respect to dose and estimates of IC50 were calculated by logistic regression (GraphPad Prism).
# NMC 11060 xenografts = test: Patient-derived NMC 11060 primary xenograft study; assay type: in vivo, mice; details: 50 mg kg^−1 daily for four days
# Source text: In parallel with these studies, a patient with widely metastatic BRD4-NUT positive NMC arising from the mediastinum was identified. With the goal of developing a more clinically-relevant disease model, short-term cultures were established using discarded clinical material obtained from pleural fluid draining from a palliative chest tube in the patient.
# NMC 797 and Per403 cells = test: Differentiation and proliferation immunohistochemistry, NMC cells; assay type: cell-based, human
# Source text: Direct inhibition of gene products expressed from recurrent, oncogenic translocations is a validated therapeutic approach in cancer^28,29. The phenotypic consequences of chemical inhibition of BET-family bromodomains on the BRD4-dependent NUT midline carcinoma was explored. BRD4-NUT chromatin localization is mechanistically linked to the preserved tandem bromodomains of BRD4 in the fusion protein^17. A characteristic feature of NMC is the appearance of discrete nuclear speckles of the BRD4-NUT oncoprotein by NUT-directed immunohistochemistry (IHC)^30.
# A striking differentiation phenotype is observed with knock-down of BRD4-NUT in NMC cell lines^17. […] Differentiation was prompt (<24 hours) and characterized by markedly augmented expression of cytokeratin, a hallmark of squamous differentiation (FIG. 3h).
# GFP-BRD4 = GFP-BRD4 (Homo sapiens (Human), UniProt O60885)
# NMC 797 cells = test: Flow cytometry for DNA content, NMC 797; assay type: cell-based, human; details: 250 nM, 48 h
# Method: Data is presented as mean±s.d. (n=3). IC50 values were calculated by logistic regression. […] Data points are mean±s.d. (n=3). […] PI, propidium iodide. […] A significant response to therapy is observed by two-tailed t-test at 14 days (p=0.039). Data represent the mean±s.d. (n=7). […] Expanded fields are provided in Supplementary FIGS. 11, 12. […] Quantitative analysis of keratin induction was performed using image masking (FIG. 5J, right panel) and pixel positivity analysis (FIG. 5K). A significant response to therapy is observed by two-tailed t-test (p=0.0001). Data represent the mean±s.d. of three independent wide microscopic fields.
# NMC 11060 cells = test: Flow cytometry for DNA content, NMC 11060; assay type: cell-based, human; details: 250 nM, 48 h
# Method: Data is presented as mean±s.d. (n=3). IC50 values were calculated by logistic regression. […] Data points are mean±s.d. (n=3).
# [2] = tested on: Keratin-14, Keratin-10, epidermal transglutaminase (TGM1); test: RT-PCR expression analysis of squamous tissue genes in NMC 797 cells; assay type: cell-based, human
# [3] = Pharmacokinetic studies in CD1 mice; details: for AUC: CD1, mouse, plasma
# cellular receptors = test: Off-target effects on cellular receptors
# TT and TE10 = test: Cell proliferation assay, non-NMC squamous carcinoma lines; assay type: cell-based, human; details: TT and TE10, 250 nM, 72 hours
# Method: Data is presented as mean±s.d. (n=3). IC50 values were calculated by logistic regression.
# [4] = tested on: BRD4-dependent human carcinoma cells; test: Annexin-V/propidium iodide flow cytometry, BRD4-dependent carcinoma cells; assay type: cell-based; details: 500 nM, 24 or 48 hours
# Method: Thus, early and late apoptosis was assessed with annexin-V and propidium iodide staining by flow cytometry.
# Trypsinized cells were mixed 1:1 on ice with Annexin-V/propidium iodide buffer (10 mM HEPES pH 7.4, 140 mM NaCl, 2.5 mM CaCl2) containing Annexin V-FITC (BD Pharmingen, 1:500) and propidium iodide (Invitrogen, 1:1000). Samples were immediately analyzed on a BD FACS Canto II. Visualizations and analyses of apoptotic fractions were generated using FlowJo flow cytometry analysis software (Tree Star, Inc.).
# NMC 797 xenografts = test: NMC 797 xenograft efficacy study
# Method: Prior to randomization and after four days of therapy, mice were evaluated by PET imaging.
# To capture comparative mechanistic and pharmacodynamic data, all animals were sacrificed and tumors were explanted for histopathologic analysis.
# Animals were followed daily for clinical symptoms. Tumor measurements were assessed by caliper measurements, and volume calculated using the formula Vol=0.5×L×W^2. After 2 weeks of treatment, all mice were humanely euthanized, and tumors were fixed in 10% formalin for histopathological examination. Statistical significance of tumor volumes was calculated by two-sided Students t-test. All animal studies were approved by the IACUC of the DFCI.
# GFP-NUT = GFP-NUT (Homo sapiens (Human), UniProt Q86Y26); test: FRAP in U2OS cells, GFP-NUT; details: 500 nM
# Method: (§2) FRAP studies were performed on U2OS cells as previously described^3,20. In brief, U2OS cells were transfected (lipofectamine; Invitrogen) with mammalian overexpression constructs encoding GFP chimera with BRD4, NUT and BRD4-NUT. A 5 μm^2 nuclear region was bleached with high laser intensity in one cell within each field, and measured for recovery with low laser intensity and a 150 μm pinhole. Images of identical fields were acquired using a Nikon Cl Plus confocal microscope equipped with a 37° C. heated chamber and FRAP modules over 90 seconds. Average intensities of the bleached region were measured over time and using MetaMorph v7, and normalized to an independent region of interest before bleaching.
# TE10 and TT = test: Differentiation immunohistochemistry, non-BRD4-dependent squamous carcinoma lines; assay type: cell-based, human
# GFP-BRD4-NUT = GFP-BRD4-NUT (Homo sapiens (Human), UniProt O60885+Q86Y26); details: 500 nM, compared to vehicle control
# Method: as §2
# BRD3-NUT cells = test: BRD3-NUT xenograft study; assay type: in vivo, mice; details: 50 mg/kg IP 7 days/week
# Source text: Mice were implanted subcutaneously with BRD3-NUT cells. Tumor measurement data were collected weekly. […] On day 24 post-injection, five mice from each group were euthanized and tumor samples were collected to be sent for lab analysis. Throughout the remainder of the study tumor samples were collected as mice were sacrificed. For all samples one half of the tumor was fixed in 10% formalin and the other half was flash frozen on dry ice. Treatment ended on day 32. Tumor volume and weights were collected weekly until all mice either became moribund or tumors reached 2 cm in any dimension. […] Upon cessation of therapy, tumor growth resumed. Tumor volume differences were significant at all points (p=7.65274E-09 at Day 24).
# CBP = CBP (Homo sapiens (Human), UniProt Q92793); test: AlphaScreen profiling against CBP; assay type: binding
# Method: as §1
# BET family members = test: AlphaScreen profiling against other BET family members; assay type: binding, human
# Sequence of GFP-NUT (Q86Y26 whole entry, looked up): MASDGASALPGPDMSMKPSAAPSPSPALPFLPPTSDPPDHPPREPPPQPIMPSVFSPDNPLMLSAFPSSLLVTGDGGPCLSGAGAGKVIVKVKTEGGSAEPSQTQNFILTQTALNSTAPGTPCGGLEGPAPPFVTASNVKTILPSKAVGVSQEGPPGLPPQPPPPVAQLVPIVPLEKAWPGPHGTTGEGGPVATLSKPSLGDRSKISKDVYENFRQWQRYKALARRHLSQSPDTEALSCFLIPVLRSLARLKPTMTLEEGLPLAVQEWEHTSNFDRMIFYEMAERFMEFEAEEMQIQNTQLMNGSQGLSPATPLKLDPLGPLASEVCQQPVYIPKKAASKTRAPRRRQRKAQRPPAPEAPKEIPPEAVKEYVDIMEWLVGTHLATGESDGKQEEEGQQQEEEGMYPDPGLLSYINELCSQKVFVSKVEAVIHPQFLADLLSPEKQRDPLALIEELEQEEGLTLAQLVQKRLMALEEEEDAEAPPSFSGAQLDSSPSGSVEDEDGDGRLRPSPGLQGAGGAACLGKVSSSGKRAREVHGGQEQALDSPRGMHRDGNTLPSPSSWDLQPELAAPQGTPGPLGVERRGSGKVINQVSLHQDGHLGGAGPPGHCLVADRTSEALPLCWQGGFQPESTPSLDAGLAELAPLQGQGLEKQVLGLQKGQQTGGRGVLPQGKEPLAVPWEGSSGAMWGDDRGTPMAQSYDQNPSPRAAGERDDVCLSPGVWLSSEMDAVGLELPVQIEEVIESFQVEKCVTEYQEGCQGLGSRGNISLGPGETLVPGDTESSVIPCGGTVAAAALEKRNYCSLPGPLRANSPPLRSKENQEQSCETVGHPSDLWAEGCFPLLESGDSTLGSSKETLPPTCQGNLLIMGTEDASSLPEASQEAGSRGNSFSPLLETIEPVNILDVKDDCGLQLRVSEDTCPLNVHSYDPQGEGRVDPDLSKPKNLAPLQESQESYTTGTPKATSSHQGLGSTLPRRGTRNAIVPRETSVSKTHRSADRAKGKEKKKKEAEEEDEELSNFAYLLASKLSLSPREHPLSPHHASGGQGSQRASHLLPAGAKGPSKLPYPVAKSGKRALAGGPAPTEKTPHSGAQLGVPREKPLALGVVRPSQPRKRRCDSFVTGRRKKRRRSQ
# Sequence of CBP (Q92793 whole entry): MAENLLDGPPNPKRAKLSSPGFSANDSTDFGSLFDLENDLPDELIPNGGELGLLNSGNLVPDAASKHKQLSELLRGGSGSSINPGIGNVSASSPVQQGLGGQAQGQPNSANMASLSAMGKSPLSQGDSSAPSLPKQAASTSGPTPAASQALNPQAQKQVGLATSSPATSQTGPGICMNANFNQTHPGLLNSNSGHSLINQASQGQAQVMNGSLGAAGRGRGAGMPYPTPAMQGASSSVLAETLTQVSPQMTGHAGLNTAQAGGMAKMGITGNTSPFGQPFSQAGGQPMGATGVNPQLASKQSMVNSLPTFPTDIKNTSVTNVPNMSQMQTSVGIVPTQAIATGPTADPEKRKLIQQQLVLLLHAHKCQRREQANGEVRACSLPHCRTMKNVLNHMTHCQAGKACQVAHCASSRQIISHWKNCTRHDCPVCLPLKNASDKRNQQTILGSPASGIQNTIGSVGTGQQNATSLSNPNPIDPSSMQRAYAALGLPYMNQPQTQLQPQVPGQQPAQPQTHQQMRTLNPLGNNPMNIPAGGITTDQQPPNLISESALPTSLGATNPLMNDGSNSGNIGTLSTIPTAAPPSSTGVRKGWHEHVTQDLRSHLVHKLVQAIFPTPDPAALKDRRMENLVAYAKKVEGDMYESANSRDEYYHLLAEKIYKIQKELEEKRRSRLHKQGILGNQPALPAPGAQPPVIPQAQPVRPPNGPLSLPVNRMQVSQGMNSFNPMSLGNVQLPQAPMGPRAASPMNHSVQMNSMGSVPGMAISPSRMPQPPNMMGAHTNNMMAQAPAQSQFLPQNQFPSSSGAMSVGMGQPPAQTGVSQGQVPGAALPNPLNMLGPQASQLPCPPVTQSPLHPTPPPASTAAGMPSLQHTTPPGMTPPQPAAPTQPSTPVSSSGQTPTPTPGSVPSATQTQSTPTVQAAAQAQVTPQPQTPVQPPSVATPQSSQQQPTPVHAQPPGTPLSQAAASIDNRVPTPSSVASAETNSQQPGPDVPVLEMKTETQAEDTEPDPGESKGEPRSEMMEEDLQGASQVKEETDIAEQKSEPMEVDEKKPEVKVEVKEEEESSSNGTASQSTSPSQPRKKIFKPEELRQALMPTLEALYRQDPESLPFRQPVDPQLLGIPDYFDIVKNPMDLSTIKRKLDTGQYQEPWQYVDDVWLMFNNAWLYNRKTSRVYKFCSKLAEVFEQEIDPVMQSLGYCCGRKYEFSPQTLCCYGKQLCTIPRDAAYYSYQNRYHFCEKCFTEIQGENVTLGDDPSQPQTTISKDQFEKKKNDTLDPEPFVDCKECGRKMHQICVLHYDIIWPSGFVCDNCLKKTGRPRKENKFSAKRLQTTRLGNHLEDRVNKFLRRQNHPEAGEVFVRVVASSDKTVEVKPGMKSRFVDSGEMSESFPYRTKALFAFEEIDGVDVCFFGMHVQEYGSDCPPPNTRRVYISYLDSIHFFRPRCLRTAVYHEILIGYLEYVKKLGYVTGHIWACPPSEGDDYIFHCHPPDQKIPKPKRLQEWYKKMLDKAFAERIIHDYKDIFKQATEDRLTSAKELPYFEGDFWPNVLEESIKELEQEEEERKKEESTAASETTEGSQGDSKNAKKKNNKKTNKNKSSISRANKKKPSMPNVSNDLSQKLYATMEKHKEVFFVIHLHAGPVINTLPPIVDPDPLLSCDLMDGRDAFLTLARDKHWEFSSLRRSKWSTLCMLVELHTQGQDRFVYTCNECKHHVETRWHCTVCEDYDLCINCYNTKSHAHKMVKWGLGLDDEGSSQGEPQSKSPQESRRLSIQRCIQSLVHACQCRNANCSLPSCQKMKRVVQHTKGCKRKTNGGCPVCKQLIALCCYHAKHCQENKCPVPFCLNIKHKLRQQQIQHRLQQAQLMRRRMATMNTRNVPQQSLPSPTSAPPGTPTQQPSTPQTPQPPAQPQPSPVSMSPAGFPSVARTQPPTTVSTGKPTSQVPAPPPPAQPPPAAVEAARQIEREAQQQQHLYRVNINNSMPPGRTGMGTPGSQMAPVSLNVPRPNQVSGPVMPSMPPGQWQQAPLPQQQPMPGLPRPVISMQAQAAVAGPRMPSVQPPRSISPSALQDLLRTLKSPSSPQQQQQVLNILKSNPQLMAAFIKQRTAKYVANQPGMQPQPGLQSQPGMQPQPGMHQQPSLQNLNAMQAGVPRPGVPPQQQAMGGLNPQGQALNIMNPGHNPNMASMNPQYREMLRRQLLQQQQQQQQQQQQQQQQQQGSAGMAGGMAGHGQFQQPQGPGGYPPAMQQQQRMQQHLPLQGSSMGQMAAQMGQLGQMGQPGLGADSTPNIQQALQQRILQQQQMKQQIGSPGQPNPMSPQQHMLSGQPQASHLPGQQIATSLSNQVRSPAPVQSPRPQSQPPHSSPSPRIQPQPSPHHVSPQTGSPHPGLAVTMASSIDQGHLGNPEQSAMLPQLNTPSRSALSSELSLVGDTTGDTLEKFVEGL
compound,measurement,setting,value
Cc1sc2c(c1C)C(c1ccc(Cl)cc1)=NC(CC(=O)NN=Cc1ccc(O)cc1)c1nnc(C)n1-2 (centres unmarked) [hydrazone (4)],activity in at least one biological assay,[1],showed activity
Cc1sc2c(c1C)C(c1ccc(Cl)cc1)=NC(CC(=O)NCCN1CCOCC1)c1nnc(C)n1-2 (centres unmarked) [JQ33],binding activity with the BRD4 site 2,BRD4(2),excellent binding activity
same,IC50,BRD4(2),29.5 nM
same,binding activity with the BRD4 site 1,BRD4(1),excellent binding activity
same,IC50,BRD4(1),85 nM
Cc1sc2c(c1C)C(c1ccc(Cl)cc1)=N[C@H](CC(=O)OC(C)(C)C)c1nnc(C)n1-2 [(R)-JQ1],IC50,797 cells; 72 h,1540 nM
Cc1sc2c(c1C)C(c1ccc(Cl)cc1)=N[C@@H](CC(=O)NCCc1cnc[nH]1)c1nnc(C)n1-2 [JQ8],binding activity with the BRD4 site 2,BRD4(2),excellent binding activity
same,binding activity with the BRD4 site 1,BRD4(1),excellent binding activity
"Cc1sc2c(c1C)C(c1ccc(Cl)cc1)=N[C@@H](CC(=O)OC(C)(C)C)c1nnc(C)n1-2 (single isomer, unassigned) [(+)-JQ1]",FDG uptake by PET imaging,NMC 11060 xenografts,marked response on FDG uptake
same,"tumor keratin expression, quantitative IHC",NMC 11060 xenografts,induction of keratin expression
same,differentiation and growth arrest phenotypes,NMC 797 and Per403 cells; BRD4-dependent NMC cells,differentiation and growth arrest phenotypes are prompted
same,fluorescence recovery of GFP-BRD4,"GFP-BRD4; 250 nM, 5 h, compared to vehicle control",enhanced recovery
same,cell cycle (DNA content),NMC 797 cells,induced a G1 arrest
same,cell cycle (DNA content),NMC 11060 cells,induces a G1 arrest
same,effect on epidermal transglutaminase (TGM1),[2],absent effect
same,induction of Keratin-10,[2],modest induction
same,AUC,"[3]; iv, 5 mg/kg",2090 ng·h/mL
same,AUC,"[3]; po, 10 mg/kg",2090 ng·h/mL
same,half-life (T1/2),"[3]; CD1 mice, intravenous 5 mg kg^−1",approximately one
Cc1sc2c(c1C)C(c1ccc(Cl)cc1)=N[C@@H](CC(=O)N/N=C/c1ncc[nH]1)c1nnc(C)n1-2 [JQ6],binding activity with the BRD4 site 2,BRD4(2),excellent binding activity
same,binding activity with the BRD4 site 1,BRD4(1),excellent binding activity
Cc1sc2c(c1C)C(c1ccc(Cl)cc1)=NC(CC(=O)NCCCN1CCN(C)CC1)c1nnc(C)n1-2 (centres unmarked) [JQ35],binding activity with the BRD4 site 2,BRD4(2),excellent binding activity
same,binding activity with the BRD4 site 1,BRD4(1),excellent binding activity
Cc1sc2c(c1C)C(c1ccc(Cl)cc1)=NC(CC(=O)NN)c1nnc(C)n1-2 (centres unmarked) [hydrazide (3)],activity in at least one biological assay,[1],showed activity
"tert-Butyl 2-(4-(4-chlorophenyl)-2,3,9-trimethyl-6H-thieno[3,2-f][1,2,4]triazolo[4,3-a][1,4]diazepin-6-yl)acetate [JQ1]",off-target effects on cellular receptors,cellular receptors,few off-target effects on cellular receptors
same,effect on cell proliferation,TT and TE10,Minimal effects observed on cell proliferation
same,apoptosis (annexin-V and propidium iodide staining),[4],induced immediate and progressive apoptosis
same,tumor growth (tumor volume by caliper),"NMC 797 xenografts; 50 mg kg^−1 daily intraperitoneal, 14 days",statistically-significant reduction in tumor growth
same,FDG uptake by PET imaging,"NMC 797 xenografts; 50 mg kg^−1 daily intraperitoneal, four days",marked response on FDG uptake
same,"tumor keratin expression, quantitative IHC","NMC 797 xenografts; 50 mg kg^−1 daily, excised tumors",strong (3+) keratin expression
same,NUT nuclear speckles in sectioned tumor tissue,"NMC 797 xenografts; 50 mg kg^−1 daily, excised tumors, IHC",effacement of NUT nuclear speckles
same,nuclear NUT foci by IHC,"NMC 797 and Per403 cells; 797 NMC cell line, 500 nM, 48 hours",effaced nuclear foci
same,time to differentiation,NMC 797 and Per403 cells; NMC 797 and Per403 cells,< 24 h
same,fluorescence recovery of GFP-BRD4,"GFP-BRD4; U2OS cells, 500 nM",observed recovery is immediate
same,redistribution of GFP-NUT,GFP-NUT,no effect was observed
same,differentiation effects,TE10 and TT,fail to exhibit differentiation effects
same,"time-to-recovery of fluorescence intensity, GFP-BRD4-NUT",GFP-BRD4-NUT,markedly accelerated time-to-recovery of fluorescence intensity
same,body weight,BRD3-NUT cells,mild weight loss with rapid recovery after cessation of therapy
same,tumor volume,BRD3-NUT cells,tumor regression while on therapy
same,oral bioavailability (F),"[3]; CD1 mice, oral 10 mg kg^−1",49%
Cc1sc2c(c1C)C(c1ccc(Cl)cc1)=N[C@@H](CC(=O)NCCN1CCN(C)CC1)c1nnc(C)n1-2 [JQ13],IC50,797 cells; proliferation after 72 hours,10900 nM
same,binding activity with the BRD4 site 2,BRD4(2),excellent binding activity
same,IC50,BRD4(2),0.584 nM
same,binding activity with the BRD4 site 1,BRD4(1),excellent binding activity
same,IC50,BRD4(1),2.49 nM
Cc1sc2c(c1C)C(c1ccc(Cl)cc1)=N[C@@H](CC(=O)OC(C)(C)C)c1nnc(C)n1-2 [JQ1S],binding and inhibition of CBP,CBP,inactive
same,binding and inhibition of BET family members,BET family members,active
